Data reported in patent US20090023771A1, “PHARMACEUTICAL COMPOSITION COMPRISING A PROTON PUMP INHIBITOR AND PROTEIN COMPONENT” (The Curators of the University of Missouri, priority 2007, published 2009).

Test: Degradation of omeprazole (PPI) by stomach acid when combined with buffering agent and/or protein component (FIGS. 1-6)
Format: physicochemical
Conditions: 40 mg omeprazole with 800 mg aluminum glycinate and 800 mg sodium bicarbonate (20:1 each); FIGS. 5 and 6; compared with sodium bicarbonate and omeprazole alone (FIGS. 3 and 4)
Method: FIG. 2 is a line graph illustrating the degradation of 40 mg omeprazole when it is administered with 800 mg of L-carnosine and 800 mg sodium bicarbonate (20:1 ratio of L-carnosine to omeprazole and sodium bicarbonate to omeprazole). FIG. 4 is a line graph illustrating the degradation of 40 mg omeprazole when it is administered with 1600 mg sodium bicarbonate (40:1 ratio). FIG. 6 is a line graph illustrating the degradation of 40 mg omeprazole when it is administered with 800 mg of aluminum glycinate and 800 mg sodium bicarbonate (20:1 ratio of aluminum glycinate to omeprazole and sodium bicarbonate to omeprazole).

degradation of the omeprazole: immediate degradation
Compound: COc1ccc2[nH]c([S+]([O-])Cc3ncc(C)c(OC)c3C)nc2c1 (stereo not shown) [omeprazole]
